In ChEMBL document CHEMBL1124182, “Design, synthesis, and properties of (4S)-7-(4-amino-2-substituted-pyrrolidin-1-yl)quinolone-3-carboxylic acids” (J Med Chem, 1988):
≈ marks a conversion by molar mass, not a printed value.

What was measured:
[1] = system: Staphylococcus aureus; experiment: In vitro Minimum inhibitory concentration against Staphylococcus aureus 45; format: functional
[2] = system: Staphylococcus aureus; experiment: In vitro Minimum inhibitory concentration against Staphylococcus aureus ATCC 6538P; format: functional
[3] = system: Staphylococcus aureus; experiment: In vitro Minimum inhibitory concentration against Staphylococcus aureus A5177; format: functional
[4] = system: Pseudomonas aeruginosa; experiment: In vitro Minimum inhibitory concentration against Pseudomonas aeruginosa 5007; format: functional
[5] = system: Streptococcus equinus; experiment: In vitro Minimum inhibitory concentration against Streptococcus bovis A5169; format: functional
[6] = system: Pseudomonas aeruginosa; experiment: In vitro Minimum inhibitory concentration against Pseudomonas aeruginosa K799/WT; format: functional
[7] = system: Klebsiella pneumoniae; experiment: In vitro Minimum inhibitory concentration against Klebsiella pneumoniae 8045; format: functional
[8] = system: Enterococcus faecium; experiment: In vitro Minimum inhibitory concentration against Streptococcus faecium ATCC 8043; format: functional
[9] = system: Streptococcus agalactiae; experiment: In vitro Minimum inhibitory concentration against Streptococcus agalactiae CMX 508; format: functional
[10] = system: Escherichia coli; experiment: In vitro Minimum inhibitory concentration against Escherichia coli Juhl; format: functional
[11] = system: Acinetobacter; experiment: In vitro Minimum inhibitory concentration against Acinetobacter CMX 669; format: functional; details: Acinetobacter; read-out: MIC
[12] = system: Staphylococcus aureus; experiment: In vitro Minimum inhibitory concentration against Staphylococcus aureus CMX 686B; format: functional
[13] = system: Streptococcus pyogenes; experiment: In vitro Minimum inhibitory concentration against Streptococcus pyogenes 930; format: functional
[14] = system: Staphylococcus epidermidis; experiment: In vitro Minimum inhibitory concentration against Staphylococcus epidermidis 3519; format: functional
[15] = system: Mus musculus; experiment: (§1) In vivo efficacy against Staphylococcus aureus 10649, in mouse protection tests when administered perorally (po); format: functional
[16] = system: Mus musculus; experiment: (§2) In vivo efficacy against Staphylococcus aureus 10649, in mouse protection tests when administered subcutaneously (sc); format: functional
[17] = system: Mus musculus; experiment: In vivo efficacy against Escherichia coli Juhl, in mouse protection tests when administered subcutaneously (sc); format: functional
[18] = system: Mus musculus; experiment: In vivo efficacy against Escherichia coli Juhl, in mouse protection tests when administered perorally (po); format: functional
[19] = system: Mus musculus; experiment: (§3) Blood level was evaluated by a disk agar diffusion assay at 6.0 hr when administered at a peroral dose of 25 mg/kg; format: functional; details: route oral
[20] = system: Escherichia coli; experiment: Supercoiling inhibition assay using purified DNA gyrase isolated from Escherichia coli H560; format: functional; details: read-out: I50
[21] = Partition coefficient (logP); format: physicochemical; details: octanol/water
[22] = Compound was evaluated for the solubility in Ringer's buffer solution; format: ADME
[23] = system: Mus musculus; experiment: (§4) Blood level was evaluated by a disk agar diffusion assay at 0.5 hr when administered at a peroral dose of 25 mg/kg; format: functional; details: route oral
[24] = system: Mus musculus; experiment: (§5) Blood level was evaluated by a disk agar diffusion assay at 24.0 hr when administered at a peroral dose of 25 mg/kg; format: functional; details: route oral
[25] = system: Mus musculus; experiment: (§6) Blood level was evaluated by a disk agar diffusion assay at 1.0 hr when administered at a peroral dose of 25 mg/kg; format: functional; details: route oral
[26] = system: Mus musculus; experiment: (§7) Blood level was evaluated by a disk agar diffusion assay at 3.0 hh when administered at a peroral dose of 25 mg/kg; format: functional; details: route oral
[27] = system: Mus musculus; experiment: (§8) Blood level was evaluated by a disk agar diffusion assay at 2.0 hr when administered at a peroral dose of 25 mg/kg; format: functional; details: route oral
[28] = Blood level was evaluated by a disk agar diffusion assay at 3.0 hh when administered at a peroral dose of 100 mg/kg; format: ADME, organism-based; set-up: dose 100 mg/kg, route oral; details: mouse, po, read-out: Blood level
[29] = as §4; format: ADME, organism-based; set-up: dose 25 mg/kg, route oral; details: mouse, po, read-out: Blood level
[30] = as §8; format: ADME, organism-based; set-up: dose 25 mg/kg, route oral; details: mouse, po, read-out: Blood level
[31] = as §3; format: ADME, organism-based; set-up: dose 25 mg/kg, route oral; details: mouse, po, read-out: Blood level
[32] = as §5; format: ADME, organism-based; set-up: dose 25 mg/kg, route oral; details: mouse, po, read-out: Blood level
[33] = as §7; format: ADME, organism-based; set-up: dose 25 mg/kg, route oral; details: mouse, po, read-out: Blood level
[34] = system: Staphylococcus aureus; experiment: as §1; format: functional
[35] = system: Staphylococcus aureus; experiment: as §2; format: functional
[36] = as §6; format: ADME, organism-based; set-up: dose 25 mg/kg, route oral; details: mouse, po, read-out: Blood level

SMILES	MIC [1]	MIC [2]	MIC [3]	MIC [4]	MIC [5]	MIC [6]	MIC [7]	MIC [8]	MIC [9]	MIC [10]	MIC [11]	MIC [12]	MIC [13]	MIC [14]	IC50 [20]	other results
NC1CCN(c2cc3c(cc2F)c(=O)c(C(=O)O)cn3-c2ccc(F)cc2)C1 (stereo not given)	–	–	–	–	–	–	–	–	–	–	–	–	–	–	–	ED50 [15]: 6.2 mg/kg; ED50 [16]: 0.8 mg/kg; ED50 [17]: 1 mg/kg; ED50 [18]: 5.8 mg/kg
O=C(O)c1cn(-c2ccc(F)cc2)c2cc(N3CCC[C@@H]3CO)c(F)cc2c1=O	0.39 µg/mL (≈ 0.974 µM)	0.1 µg/mL (≈ 0.25 µM)	0.39 µg/mL (≈ 0.974 µM)	3.1 µg/mL (≈ 7.74 µM)	25 µg/mL (≈ 62.4 µM)	3.1 µg/mL (≈ 7.74 µM)	0.78 µg/mL (≈ 1.95 µM)	3.1 µg/mL (≈ 7.74 µM)	3.1 µg/mL (≈ 7.74 µM)	0.78 µg/mL (≈ 1.95 µM)	0.78 µg/mL (≈ 1.95 µM)	0.1 µg/mL (≈ 0.25 µM)	3.1 µg/mL (≈ 7.74 µM)	0.39 µg/mL (≈ 0.974 µM)	–	–
NC1CCN(c2nc3c(cc2F)c(=O)c(C(=O)O)cn3-c2ccc(F)cc2F)C1 (stereo not given) [TOSUFLOXACIN]	0.05 µg/mL (≈ 0.124 µM)	0.02 µg/mL (≈ 0.0495 µM)	0.05 µg/mL (≈ 0.124 µM)	0.78 µg/mL (≈ 1.93 µM)	0.78 µg/mL (≈ 1.93 µM)	0.39 µg/mL (≈ 0.965 µM)	0.01 µg/mL (≈ 0.0247 µM)	0.2 µg/mL (≈ 0.495 µM)	0.2 µg/mL (≈ 0.495 µM)	0.02 µg/mL (≈ 0.0495 µM)	0.05 µg/mL (≈ 0.124 µM)	0.05 µg/mL (≈ 0.124 µM)	0.1 µg/mL (≈ 0.247 µM)	0.1 µg/mL (≈ 0.247 µM)	0.4 µg/mL (≈ 0.989 µM)	concentration at 3 h [28]: 1700 ng/mL; logP [21]: -0.46; solubility ([22]; buffer): 8 µg/mL (≈ 19.8 µM)
C[C@H]1C[C@H](N)CN1c1cc2c(cc1F)c(=O)c(C(=O)O)cn2-c1ccc(F)cc1	0.05 µg/mL (≈ 0.125 µM)	0.05 µg/mL (≈ 0.125 µM)	0.05 µg/mL (≈ 0.125 µM)	3.1 µg/mL (≈ 7.76 µM)	0.2 µg/mL (≈ 0.501 µM)	0.78 µg/mL (≈ 1.95 µM)	0.01 µg/mL (≈ 0.025 µM)	0.2 µg/mL (≈ 0.501 µM)	0.2 µg/mL (≈ 0.501 µM)	0.02 µg/mL (≈ 0.0501 µM)	0.1 µg/mL (≈ 0.25 µM)	0.05 µg/mL (≈ 0.125 µM)	0.2 µg/mL (≈ 0.501 µM)	0.05 µg/mL (≈ 0.125 µM)	–	concentration at 0.5 h [29]: 1000 ng/mL; concentration at 2 h [30]: 400 ng/mL; concentration at 3 h [33]: 200 ng/mL; ED50 [15]: 4.4 mg/kg; ED50 [16]: 0.8 mg/kg; concentration at 1 h [36]: 800 ng/mL

The next lines start with results.

MIC [1]	MIC [2]	MIC [3]	MIC [4]	MIC [5]	MIC [6]	MIC [7]	MIC [8]	MIC [9]	MIC [10]	MIC [11]	MIC [12]	MIC [13]	MIC [14]	IC50 [20]	SMILES	other results
0.78 µg/mL (≈ 1.87 µM)	0.1 µg/mL (≈ 0.24 µM)	0.39 µg/mL (≈ 0.937 µM)	0.39 µg/mL (≈ 0.937 µM)	1.56 µg/mL (≈ 3.75 µM)	0.39 µg/mL (≈ 0.937 µM)	0.05 µg/mL (≈ 0.12 µM)	0.39 µg/mL (≈ 0.937 µM)	0.78 µg/mL (≈ 1.87 µM)	0.05 µg/mL (≈ 0.12 µM)	0.39 µg/mL (≈ 0.937 µM)	0.2 µg/mL (≈ 0.48 µM)	0.78 µg/mL (≈ 1.87 µM)	0.39 µg/mL (≈ 0.937 µM)	–	O=C(O)c1cn(-c2ccc(F)cc2F)c2nc(N3C[C@@H]4C[C@H]3CN4)c(F)cc2c1=O	–
0.39 µg/mL (≈ 0.932 µM)	0.2 µg/mL (≈ 0.478 µM)	0.39 µg/mL (≈ 0.932 µM)	12.5 µg/mL (≈ 29.9 µM)	6.2 µg/mL (≈ 14.8 µM)	3.1 µg/mL (≈ 7.41 µM)	0.39 µg/mL (≈ 0.932 µM)	3.1 µg/mL (≈ 7.41 µM)	6.2 µg/mL (≈ 14.8 µM)	0.39 µg/mL (≈ 0.932 µM)	0.78 µg/mL (≈ 1.86 µM)	0.2 µg/mL (≈ 0.478 µM)	1.56 µg/mL (≈ 3.73 µM)	0.39 µg/mL (≈ 0.932 µM)	7.5 µg/mL (≈ 17.9 µM)	C[C@@H]1C[C@H](N)CN1c1nc2c(cc1F)c(=O)c(C(=O)O)cn2-c1ccc(F)cc1F	Blood level [19]: 1.1 µg/mL; logP [21]: -0.11; solubility ([22]; Ringer's buffer solution, read-out: Solubility): 340 µg/mL (≈ 813 µM); Blood level [23]: 5.3 µg/mL; Blood level [24]: 0 µg/mL; Blood level [25]: 12.4 µg/mL; Blood level [26]: 2.2 µg/mL; Blood level [27]: 3.7 µg/mL
0.1 µg/mL (≈ 0.229 µM)	0.05 µg/mL (≈ 0.115 µM)	0.1 µg/mL (≈ 0.229 µM)	0.78 µg/mL (≈ 1.79 µM)	0.78 µg/mL (≈ 1.79 µM)	0.78 µg/mL (≈ 1.79 µM)	0.1 µg/mL (≈ 0.229 µM)	0.2 µg/mL (≈ 0.458 µM)	0.39 µg/mL (≈ 0.894 µM)	0.1 µg/mL (≈ 0.229 µM)	0.39 µg/mL (≈ 0.894 µM)	0.05 µg/mL (≈ 0.115 µM)	0.2 µg/mL (≈ 0.458 µM)	0.2 µg/mL (≈ 0.458 µM)	0.75 µg/mL (≈ 1.72 µM)	N[C@H]1CC(CF)N(c2nc3c(cc2F)c(=O)c(C(=O)O)cn3-c2ccc(F)cc2F)C1 (stereo not given in full)	–
0.1 µg/mL (≈ 0.25 µM)	0.05 µg/mL (≈ 0.125 µM)	0.1 µg/mL (≈ 0.25 µM)	0.39 µg/mL (≈ 0.974 µM)	0.78 µg/mL (≈ 1.95 µM)	0.39 µg/mL (≈ 0.974 µM)	0.05 µg/mL (≈ 0.125 µM)	0.39 µg/mL (≈ 0.974 µM)	0.78 µg/mL (≈ 1.95 µM)	0.05 µg/mL (≈ 0.125 µM)	0.1 µg/mL (≈ 0.25 µM)	0.05 µg/mL (≈ 0.125 µM)	0.39 µg/mL (≈ 0.974 µM)	0.1 µg/mL (≈ 0.25 µM)	–	C[C@H]1C[C@H](N)CN1c1nc2c(cc1F)c(=O)c(C(=O)O)cn2-c1ccc(F)cc1	concentration at 0.5 h [29]: 2400 ng/mL; concentration at 2 h [30]: 1500 ng/mL; concentration at 6 h [31]: 300 ng/mL; concentration at 24 h [32]: 100 ng/mL; concentration at 3 h [33]: 800 ng/mL; ED50 [34]: 5.7 mg/kg; ED50 [35]: 2 mg/kg; concentration at 1 h [36]: 1900 ng/mL
